Assay results reported in patent publication US7799799B2, “Indolizine derivatives, method for preparing same, and therapeutic compositions comprising same” (Sanofi-Aventis, priority 2005, dated 2010).
Converted amounts (≈) assume the structure as drawn. Where a name gives a salt, the structure may show the parent alone.

Experiments:
[1] = at a pH of 3; cited from earlier work
[2] = Solubility test at pH=4 from phosphate buffer pH 6 0.1M, by HPLC; format: physicochemical; settings: for solubility at 5 min: aqueous buffer, thermodynamic from solid, phosphate buffer pH 6 0.1M, HPLC, first figure of the S/pH cell, the pH of the sample is the second; for pH (of the solubility sample): second figure of the S/pH cell, pH noted for the solubility sample
Method: The results for solubility, S, and pH are shown in the table below and are expressed in mg/ml.
A phosphate buffer, pH6, 0.1M, was prepared by adding 6.15 ml of 0.1M Na2HPO4 to 43.85 ml of 0.1M NaH2PO4. The solution was made up to 100 ml with filtered water using a Millipore system (trade mark).
Reference (Test Product in a Concentration in which the Latter is Soluble and which Acts as an Internal Reference)
About 0.2 mg (in a boat) was weighed out exactly and diluted in 1 ml of H2O/CH3CN: (50:50), i.e. 0.2 mg/ml, then the sample was subjected to ultrasound for 5 minutes.
About 4 mg (in a boat) was weighed out exactly and diluted in 400 μl (i.e. 10 mg/ml) of pH6 phosphate buffer (0.1M), then the sample was subjected to ultrasound for 5 minutes.
The pH was noted and if the pH was below 4, 1 μl of NaOH 1N was added (from 1 μl in 1 μl) until the pH was more than 4, then the pH was noted again. The solution (0.45 μm) was filtered then if necessary diluted with the phosphate buffer pH6. (If the product re-precipitated after diluting, the diluted sample was ignored, the mother solution was used and the solubility was determined at a wavelength other than λmax, to avoid saturating the signal.
The solubility of the compound was then determined by HPLC under the following conditions:
Instrument: Agilent 1100 chromatograph
Column temperature: 30° C. Flow rate: 0.8 ml/min Detection: λ=230 nm Injection volume: 5 μl

Row | solubility at 5 min [2] [µg/mL] | pH (of the solubility sample) [2] | Structure (SMILES) | solubility in water S [1] [µg/mL]
1 | 7190 | 3.95 | CCCCc1cc2ccccn2c1C(=O)c1ccc(CCCN(CCOC)CCOC)cc1 [compound 41, (4-{3-[bis(2-methoxyethyl)amino]propyl}phenyl)(2-butylindolizin-3-yl)methanone oxalate] | –
2 | 1660 | 5.18 | CCCCc1cc2ccccn2c1C(=O)c1ccc(CCCN2CCCCC2)cc1 [compound 42, (2-butylindolizin-3-yl)[4-(3-piperidin-1-ylpropyl)phenyl]methanone oxalate] | –
3 | 4460 | 5.65 | CCCCc1cc2ccc(C)cn2c1C(=O)c1ccc(CCCN(CCC)CCC)cc1 [compound 43, (2-butyl-6-methylindolizin-3-yl){4-[3-(dipropylamino)propyl]phenyl}methanone hydrochloride] | –
4 | > 10000 | 6.05 | CCCCc1cc2ccc(CC)cn2c1C(=O)c1ccc(CCCN(CCC)CCC)cc1 [compound 44, (2-butyl-6-ethylindolizin-3-yl){4-[3-(dipropylamino)propyl]phenyl}methanone hydrochloride] | –

More lines, now with the values behind:

Row | Structure (SMILES) | solubility at 5 min [2] [µg/mL] | pH (of the solubility sample) [2] | solubility in water S [1] [µg/mL]
5 | CCCCc1oc2ccc(NS(C)(=O)=O)cc2c1C(=O)c1ccc(OCCCN(CCCC)CCCC)cc1 [Dronedarone] | – | – | 247 (≈ 444 µM)
6 | CCCCc1cc2ccccn2c1C(=O)c1ccc(CCCN(CCC)CC2CC2)cc1 [compound 35, (2-butylindolizin-3-yl)(4-{3-[(cyclopropylmethyl)(propyl)amino]propyl}phenyl)methanone hydrochloride] | 4400 | 4.75 | –
7 | CCCNCCCCc1ccc(C(=O)c2c(CCC)cc3ccccn23)cc1.Cl [compound 36, {4-[4-(propylamino)butyl]phenyl}(2-propylindolizin-3-yl)methanone hydrochloride] | 2240 | 6.3 | –
8 | CCCCc1cc2ccccn2c1C(=O)c1ccc(CCCNCCC)cc1.Cl [compound 37, (2-butylindolizin-3-yl){4-[3-(propylamino)propyl]phenyl}methanone hydrochloride] | 1780 | 7.14 | –
9 | CCCCc1cc2ccccn2c1C(=O)c1ccc(CCCN(C)C)cc1.Cl [compound 38, (2-butylindolizin-3-yl){4-[3-(dimethylamino)propyl]phenyl}methanone hydrochloride] | 1420 | – | –
10 | CCCCc1cc2ccccn2c1C(=O)c1ccc(CCCN2C[C@@H](C)N[C@@H](C)C2)cc1 [compound 39, (2-butylindolizin-3-yl)(4-{3-[(3R,5S)-3,5-dimethylpiperazin-1-yl]propyl}phenyl)methanone hydrochloride] | > 10000 | 4.22 | –
11 | CCCCc1cc2ccccn2c1C(=O)c1ccc(CCCN2C[C@@H](C)N(C)[C@@H](C)C2)cc1 [compound 40, (2-butylindolizin-3-yl)(4-{3-[(3R,5S)-3,4,5-trimethylpiperazin-1-yl]propyl}phenyl)methanone hydrochloride] | 9930 | 4.3 | –
